The source made the active and inactive calls. No cut-off for these calls is given here.
Experiments:
[1] = system: Pseudomonas aeruginosa; experiment: Antimicrobial activity against Pseudomonas aeruginosa 26305 clinical isolates after 24 hrs by NCCLS-protocol based assay; assay type: functional; details: Pseudomonas aeruginosa, 26305, 24 h
[2] = system: Escherichia coli; experiment: Bactericidal activity against Escherichia coli ATCC 25922 incubated for 4 hrs followed by culture spread on agar plates and cultured overnight in presence of 2 mg/ml trypsin; assay type: functional; details: ATCC 25922, 4 h, read-out: MBC>99.9
[3] = system: HEK-293T; experiment: Cytotoxicity against HEK293T cells assessed as cell death after 18 to 24 hrs by MTT assay; assay type: cell-based; details: Homo sapiens
[4] = system: Escherichia coli; experiment: Bactericidal activity against Escherichia coli K88 incubated for 4 hrs followed by culture spread on agar plates and cultured overnight; assay type: functional; details: K88, 4 h, read-out: MBC>99.9
[5] = system: Salmonella typhimurium; experiment: Antimicrobial activity against Salmonella typhimurium C7731 after 24 hrs by NCCLS-protocol based assay; assay type: functional, Salmonella enterica subsp. enterica serovar Typhimurium; details: Salmonella enterica, C7731, 24 h
[6] = system: Escherichia coli; experiment: Bactericidal activity against Escherichia coli UB1005 incubated for 4 hrs followed by culture spread on agar plates and cultured overnight; assay type: functional; details: UB1005, 4 h, read-out: MBC>99.9
[7] = system: Pseudomonas aeruginosa; experiment: Antimicrobial activity against Pseudomonas aeruginosa PAO1 after 24 hrs by NCCLS-protocol based assay; assay type: functional; details: PAO1, 24 h
[8] = system: RAW264.7; experiment: Cytotoxicity against mouse RAW264.7 cells assessed as cell death after 18 to 24 hrs by MTT assay; assay type: cell-based
[9] = system: Pseudomonas aeruginosa; experiment: Antimicrobial activity against Pseudomonas aeruginosa 25349 clinical isolates after 24 hrs by NCCLS-protocol based assay; assay type: functional; details: Pseudomonas aeruginosa, 25349, 24 h
[10] = system: Salmonella typhimurium; experiment: Bactericidal activity against Salmonella typhimurium ATCC 14028 incubated for 4 hrs followed by culture spread on agar plates and cultured overnight; assay type: functional, Salmonella enterica subsp. enterica serovar Typhimurium; details: Salmonella enterica, ATCC 14028, 4 h; read-out: MBC>99.9
[11] = system: Acinetobacter baumannii; experiment: Bactericidal activity against Acinetobacter baumannii incubated for 4 hrs followed by culture spread on agar plates and cultured overnight; assay type: functional; details: read-out: MBC>99.9
[12] = system: Escherichia coli; experiment: Bactericidal activity against Escherichia coli ATCC 25922 incubated for 4 hrs followed by culture spread on agar plates and cultured overnight; assay type: functional; details: ATCC 25922, 4 h, read-out: MBC>99.9
[13] = system: Escherichia coli; experiment: Bactericidal activity against Escherichia coli ATCC 25922 incubated for 4 hrs followed by culture spread on agar plates and cultured overnight in presence of CaCl2; assay type: functional; details: ATCC 25922, 4 h, read-out: MBC>99.9
[14] = system: Escherichia coli; experiment: Bactericidal activity against Escherichia coli ATCC 25922 incubated for 4 hrs followed by culture spread on agar plates and cultured overnight in presence of 0.5 mg/ml trypsin; assay type: functional; details: ATCC 25922, 4 h, read-out: MBC>99.9
[15] = system: Pseudomonas aeruginosa; experiment: Antimicrobial activity against Pseudomonas aeruginosa CICC 21630 clinical isolates after 24 hrs by NCCLS-protocol based assay; assay type: functional; details: CICC 21630, 24 h
[16] = Stability of the compound assessed as pepsin (unknown origin)-mediated compound hydrolysis after 8 hrs by SDS-PAGE analysis; assay type: ADME; details: human
[17] = system: Escherichia coli; experiment: Antimicrobial activity against Escherichia coli ATCC 25922 after 24 hrs by NCCLS-protocol based assay; assay type: functional; details: ATCC 25922, 24 h
[18] = Selectivity ratio of IC50 for mouse RAW264.7 cells to geometric mean of the peptide MBC for bacteria
[19] = system: Pseudomonas aeruginosa; experiment: Antimicrobial activity against Pseudomonas aeruginosa CICC 21625 clinical isolates after 24 hrs by NCCLS-protocol based assay; assay type: functional; details: CICC 21625, 24 h
[20] = Selectivity ratio of IC50 for HEK293T cells to geometric mean of the peptide MBC for bacteria
[21] = system: Pseudomonas aeruginosa; experiment: Bactericidal activity against Pseudomonas aeruginosa ATCC 27853 incubated for 4 hrs followed by culture spread on agar plates and cultured overnight; assay type: functional; details: ATCC 27853, 4 h, read-out: MBC>99.9
[22] = Bactericidal activity against Salmonella pullorum C7913 incubated for 4 hrs followed by culture spread on agar plates and cultured overnight; assay type: functional, Salmonella enterica subsp. enterica serovar Pullorum; details: Salmonella enterica, C7913, 4 h; read-out: MBC>99.9
[23] = Cytotoxicity against IPECJ2 cells assessed as cell death after 18 to 24 hrs by MTT assay; assay type: cell-based; details: Sus scrofa, IPEC-J2
[24] = system: Escherichia coli; experiment: Bactericidal activity against Escherichia coli ATCC 25922 incubated for 4 hrs followed by culture spread on agar plates and cultured overnight in presence of 0.125 mg/ml chymotrypsin; assay type: functional; details: ATCC 25922, 4 h, read-out: MBC>99.9
[25] = system: Escherichia coli; experiment: Bactericidal activity against Escherichia coli ATCC 25922 incubated for 4 hrs followed by culture spread on agar plates and cultured overnight in presence of 4 mg/ml chymotrypsin; assay type: functional; details: ATCC 25922, 4 h, read-out: MBC>99.9
[26] = Antimicrobial activity against Salmonella pullorum C7913 after 24 hrs by NCCLS-protocol based assay; assay type: functional, Salmonella enterica subsp. enterica serovar Pullorum; details: Salmonella enterica, C7913, 24 h
[27] = system: Escherichia coli; experiment: Antibacterial activity against Escherichia coli ATCC 25922 infected in ICR mouse assessed as log reduction in bacterial cells in peritoneal cavity at 5 mg/kg, ip administered at 5 mg/kg, ip dosed at 0.5, 2, 4 and 8 hrs post-infection; assay type: functional
[28] = system: Escherichia coli; experiment: Bactericidal activity against Escherichia coli ATCC 25922 incubated for 4 hrs followed by culture spread on agar plates and cultured overnight in presence of KCl; assay type: functional; details: ATCC 25922, 4 h, read-out: MBC>99.9
[29] = system: Escherichia coli; experiment: Bactericidal activity against Escherichia coli ATCC 25922 incubated for 4 hrs followed by culture spread on agar plates and cultured overnight in presence of 0.25 mg/ml trypsin; assay type: functional; details: ATCC 25922, 4 h, read-out: MBC>99.9
[30] = system: Escherichia coli; experiment: Bactericidal activity against Escherichia coli ATCC 25922 incubated for 4 hrs followed by culture spread on agar plates and cultured overnight in presence of 4 mg/ml pepsin; assay type: functional, organism-based
[31] = system: Escherichia coli; experiment: Antimicrobial activity against Escherichia coli UB1005 after 24 hrs by NCCLS-protocol based assay; assay type: functional; details: UB1005, 24 h
[32] = system: Escherichia coli; experiment: Bactericidal activity against Escherichia coli ATCC 25922 incubated for 4 hrs followed by culture spread on agar plates and cultured overnight in presence of 0.125 mg/ml trypsin; assay type: functional; details: ATCC 25922, 4 h, read-out: MBC>99.9
[33] = system: Pseudomonas aeruginosa; experiment: Antimicrobial activity against Pseudomonas aeruginosa ATCC 27853 after 24 hrs by NCCLS-protocol based assay; assay type: functional; details: ATCC 27853, 24 h
[34] = system: Pseudomonas aeruginosa; experiment: Bactericidal activity against Pseudomonas aeruginosa 26305 clinical isolates incubated for 4 hrs followed by culture spread on agar plates and cultured overnight; assay type: functional; details: Pseudomonas aeruginosa, 26305, 4 h; read-out: MBC>99.9
[35] = system: Escherichia coli; experiment: Antibacterial activity against Escherichia coli ATCC 25922 infected in ICR mouse assessed as log reduction in bacterial cells in spleen at 5 mg/kg, ip administered at 5 mg/kg, ip dosed at 0.5, 2, 4 and 8 hrs post-infection; assay type: functional
[36] = system: Escherichia coli; experiment: Bactericidal activity against Escherichia coli ATCC 25922 incubated for 4 hrs followed by culture spread on agar plates and cultured overnight in presence of 1 mg/ml chymotrypsin; assay type: functional; details: ATCC 25922, 4 h, read-out: MBC>99.9
[37] = system: Pseudomonas aeruginosa; experiment: Bactericidal activity against Pseudomonas aeruginosa 25349 clinical isolates incubated for 4 hrs followed by culture spread on agar plates and cultured overnight; assay type: functional; details: Pseudomonas aeruginosa, 25349, 4 h; read-out: MBC>99.9
[38] = system: Pseudomonas aeruginosa; experiment: Bactericidal activity against Pseudomonas aeruginosa CICC 21630 clinical isolates incubated for 4 hrs followed by culture spread on agar plates and cultured overnight; assay type: functional; details: CICC 21630, 4 h, read-out: MBC>99.9
[39] = Selectivity ratio of IC50 for pig IPECJ2 cells to geometric mean of the peptide MBC for bacteria

| Substance | MIC95 [1] [µM] | MBC [2] [µM] | IC50 [3] [µM] | MBC [4] [µM] | MIC95 [5] [µM] | MBC [6] [µM] | MIC95 [7] [µM] | IC50 [8] [µM] | MIC95 [9] [µM] | MBC [10] [µM] | MBC [11] [µM] | MBC [12] [µM] | MBC [13] [µM] | MBC [14] [µM] | MIC95 [15] [µM] | Stability [16] | MIC95 [17] [µM] | Ratio [18] | MIC95 [19] [µM] | Ratio [20] | further results |
| --- | --- | --- | --- | --- | --- | --- | --- | --- | --- | --- | --- | --- | --- | --- | --- | --- | --- | --- | --- | --- | --- |
| H-IRPIIRPIIRPIIRPIIRPIIRPIIRPI-NH2 | 32 | 2 | 324 | 1 | 1 | 2 | 4 | 5650 | 32 | 2 | 1 | 2 | > 128 | 2 | 32 | Stable | 1 | 1136.22 | 64 | 65.19 | MBC [21]: 8 µM; MBC [22]: 4 µM; IC50 [23]: 126 µM; MBC [24]: 2 µM; MBC [25]: 2 µM; MIC95 [26]: 2 µM; log(activity) [27]: 5; MBC [28]: 2 µM; MBC [29]: 2 µM; Activity [30]: Active; MIC95 [31]: 2 µM; MBC [32]: 2 µM; MIC95 [33]: 4 µM; MBC [34]: 64 µM; log(activity) [35]: 1.6; MBC [36]: 2 µM; MBC [37]: 32 µM; MBC [38]: 32 µM; Ratio [39]: 25.25 |
| H-LKPLLKPLLKPLLKPLLKPLLKPLLKPL-NH2 | 4 | 1 | 47.4 | 1 | 2 | 2 | 1 | 1.56 | 8 | 2 | 1 | 1 | > 128 | 1 | 2 | Unstable | 0.5 | 0.58 | 8 | 17.49 | MBC [21]: 2 µM; MBC [22]: 4 µM; IC50 [23]: 24.4 µM; MBC [24]: 1 µM; MBC [25]: > 64 µM; MIC95 [26]: 2 µM; log(activity) [27]: 1; MBC [28]: 1 µM; MBC [29]: 1 µM; Activity [30]: inactive; MIC95 [31]: 1 µM; MBC [32]: 1 µM; MIC95 [33]: 2 µM; MBC [34]: 16 µM; log(activity) [35]: 1; MBC [36]: 1 µM; MBC [37]: 8 µM; MBC [38]: 8 µM; Ratio [39]: 9.01 |
| H-LRPLLRPLLRPLLRPLLRPLLRPLLRPL-NH2 | 2 | 2 | 19.2 | 1 | 2 | 2 | 1 | 2.29 | 4 | 2 | 1 | 2 | 16 | 2 | 2 | Unstable | 1 | 0.89 | 8 | 7.42 | MBC [21]: 4 µM; MBC [22]: 2 µM; IC50 [23]: 10.7 µM; MBC [24]: 2 µM; MBC [25]: > 64 µM; MIC95 [26]: 1 µM; log(activity) [27]: 1; MBC [28]: 2 µM; MBC [29]: 2 µM; Activity [30]: inactive; MIC95 [31]: 2 µM; MBC [32]: 2 µM; MIC95 [33]: 1 µM; MBC [34]: 8 µM; log(activity) [35]: 1; MBC [36]: > 64 µM; MBC [37]: 8 µM; MBC [38]: 4 µM; Ratio [39]: 4.11 |
